Assay results taken from patent US20110263454A1, “Methods of Identifying Functional Characteristics of Promoters, Transcription Modifying Proteins and Transcription Modulating Agents” (Salk Institute for Biological Studies, priority 2008, published 2011).

Tests used:
hMyoD promoter = assay: NHR-promoter luciferase screen, hMyoD promoter; format: cell-based, human; details: for Luc. act., normalized to lacZ / Normalized Luc. act., normalized to control: MyoD promoter reporter, co-transfected HR, without or with its ligand; for Normalized Luc. act., normalized to control: relative to control; for luciferase activity normalized to lacZ activity and to a control, hMyoD: hMyoD promoter-luciferase, CV-1 cells, NHR +/- ligand, control = 1.00
Method: (§1) The use, feasibility, and reproducibility of the functional NHR-promoter screen in a 48-well format have been tested validated. Briefly, there were co-expressed 50 ng of each NHR/NHR homodimer or NHR/RXR heterodimer with 100 ng promoter/luciferase construct and 50 ng of LacZ (as a control for transfection efficiency) in CV-1 cells using Fugene HD (Roche) as a transfection reagent (alternatively or additionally, a CMV-YFP construct can be used as a transfection control). Each of the nuclear hormone receptors that were used in these experiments was cloned into a pcDNA3.1 vector and comprised a C-terminally linked V5H6 tag. Twenty-four hours after transfection, appropriate ligands were added, where applicable, (see Table 5 for various ligands and concentrations and after 48 hrs, samples were assayed for luciferase and LacZ activity. To measure for luciferase activity 15 ul of sample was added to 30 ul of luciferase buffer (20 mM tricine, 1.07 mM MgCarbonate, 2.67 mM MgSulfate, 0.1 mM Naz-EDTA, 5 mM DTT, 5 mM ATP, 0.15 mg/ml CoA, 0.5 mM Luciferin), mixed briefly, and run in a Perkin Elmer Victor 5 luminometer. Thus, the functional NHR-promoter screen was used to observe the transcriptional activity of 29 promoters from various physiological pathways including inflammation, lipid and sugar metabolism, cholesterol transport, xenobiotic metabolism, and circadian rhythm.
(§2) The promoters that facilitate transcription of the indicated gene products that were tested using the protocols described herein are listed in the first row of the table. The nuclear hormone receptors and, where applicable, ligands that were assayed for their transcriptional effects on the promoters are listed in the first column of the table. The data represent the luciferase activity of each sample normalized to both the lacZ activity of that sample and to a control, e.g., no NHR or ligand, as customary in the art. As described previously, these normalizations allow the transcriptional activity of each reporter cell to be compared to other samples.
(§3) Tables 7-40 show the transcriptional effects of the hormone receptors, and, where applicable, ligands (orphan receptors are screened without ligand), on each individual promoter. […] The control data of each table are shown in their last rows.

mUCP2 promoter = assay: NHR-promoter luciferase screen, mUCP2 promoter; format: cell-based, mouse; details: for Luc. act., normalized to lacZ / Normalized Luc. act., normalized to control: mUCP2 promoter reporter, co-transfected HR, with or without its ligand; for Normalized Luc. act., normalized to control: relative to control; for luciferase activity normalized to lacZ activity and to a control, mUCP2: mUCP2 promoter-luciferase, CV-1 cells, NHR +/- ligand, control = 1.00
Method: as §1, §2, §3

mNPY promoter = assay: NHR-promoter luciferase screen, mNPY promoter; format: cell-based, mouse; details: for Results of assays of transcription factor (+/- ligand) with mNPY: Table 6d, luciferase activity relative to control (control = 1.00); for Luc. act., normalized to lacZ / Normalized Luc. act., normalized to control: mNPY promoter, HR component with or without ligand; for Normalized Luc. act., normalized to control: relative to control
Method: as §1, §2, §3

MCP-1 promoter = assay: NHR-promoter luciferase screen, MCP-1 promoter; format: cell-based; details: for Normalized Luc. act., normalized to control / Luc. act., normalized to lacZ: MCP-1 promoter reporter; for Normalized Luc. act., normalized to control: HR without or with its ligand, relative to control; for Luc. act., normalized to lacZ: hormone receptor (HR) without or with its ligand; for mMCP-1 promoter reporter activity: transcription factor +/- ligand, control = 1.00
Method: as §1, §2, §3

mDio2 promoter = assay: NHR-promoter luciferase screen, mDio2 promoter; format: cell-based, mouse; details: for Luc. act., normalized to lacZ / Normalized Luc. act., normalized to control: Dio2, HR component without or with its ligand; for mDio2 promoter reporter activity: transcription factor +/- ligand, control = 1.00
Method: as §1, §2, §3

hPPARg2 promoter = assay: NHR-promoter luciferase screen, hPPARg2 promoter; format: cell-based, human; details: for Luc. act., normalized to lacZ / Normalized Luc. act., normalized to control: PPARG2 promoter, hormone receptor with or without its ligand; for Normalized Luc. act., normalized to control: relative to control; for Results of assays of transcription factor (+/- ligand) with hPPARg2: Table 6d, luciferase activity relative to control (control = 1.00)
Method: as §1, §2, §3

Substance	Luc. act., normalized to lacZ (hMyoD promoter)	Normalized Luc. act., normalized to control (hMyoD promoter)	luciferase activity normalized to lacZ activity and to a control, hMyoD (hMyoD promoter)	Luc. act., normalized to lacZ (mUCP2 promoter)	Normalized Luc. act., normalized to control (mUCP2 promoter)	luciferase activity normalized to lacZ activity and to a control, mUCP2 (mUCP2 promoter)	Results of assays of transcription factor (+/- ligand) with mNPY (mNPY promoter)	Luc. act., normalized to lacZ (mNPY promoter)	Normalized Luc. act., normalized to control (mNPY promoter)	Normalized Luc. act., normalized to control (MCP-1 promoter)	Luc. act., normalized to lacZ (MCP-1 promoter)	mMCP-1 promoter reporter activity (MCP-1 promoter)	Luc. act., normalized to lacZ (mDio2 promoter)	Normalized Luc. act., normalized to control (mDio2 promoter)	mDio2 promoter reporter activity (mDio2 promoter)	Luc. act., normalized to lacZ (hPPARg2 promoter)	Normalized Luc. act., normalized to control (hPPARg2 promoter)	Results of assays of transcription factor (+/- ligand) with hPPARg2 (hPPARg2 promoter)
VDR: Vitamin D Receptor (NR1I1), cDNA driver	52.8	0.8	0.83	136.2	1.2	1.24	0.79	66.7	0.8	2.0	215.8	2.02	23.7	1.5	1.51	2.1	1.0	1.03
PNR: Photoreceptor-specific Nuclear Receptor (NR2E3), cDNA driver	37.1	0.6	0.59	104.4	1.0	0.95	2.00	168.3	2.0	1.1	116.3	1.09	14.0	0.9	0.89	1.0	0.5	0.51
GR: Glucocorticoid Receptor (NR3C1), cDNA driver	26.4	0.4	0.42	59.4	0.5	0.54	0.57	47.8	0.6	0.2	23.9	0.22	13.2	0.8	0.84	2.3	1.1	1.15
NR4a1: NR4a1 (NR4A1; NUR77), nuclear hormone receptor cDNA driver	152.5	2.4	2.41	265.6	2.4	2.42	0.92	77.0	0.9	0.7	76.3	0.71	21.8	1.4	1.39	1.6	0.8	0.81
ERR1: Estrogen Related Receptor α (NR3B1, ERRa), cDNA driver	69.1	1.1	1.09	121.6	1.1	1.11	0.83	69.6	0.8	2.2	237.3	2.22	34.6	2.2	2.20	1.7	0.8	0.84
PPARg: Peroxisome proliferator activated receptor γ (NR1C3), cDNA driver	74.5	1.2	1.18	171.6	1.6	1.56	1.14	95.6	1.1	1.4	146.1	1.36	35.5	2.3	2.26	2.2	1.1	1.08
LXRa: Liver X Receptor α (NR1H3), cDNA driver	60.1	0.9	0.95	262.7	2.4	2.39	0.67	56.2	0.7	0.9	97.3	0.91	19.0	1.2	1.21	1.3	0.6	0.64
RXRa: Retinoic X Receptor α (NR2B1), cDNA driver	51.2	0.8	0.81	137.8	1.3	1.25	0.95	80.0	1.0	1.6	170.8	1.60	18.6	1.2	1.18	1.3	0.7	0.67
PPARa: Peroxisome proliferator activated receptor α (NR1C1), cDNA driver	63.7	1.0	1.01	167.3	1.5	1.52	0.62	51.7	0.6	1.1	121.8	1.14	23.0	1.5	1.46	2.4	1.2	1.20
SF-1: Steroidogenic Factor 1 (NR5A1, SF1), cDNA driver	151.2	2.4	2.39	449.3	4.1	4.09	2.12	177.6	2.1	2.0	217.9	2.04	63.2	4.0	4.02	2.2	1.1	1.09
